Bounds are passed on as bounds.

Here are results for one substance from US20240360179A1, “STAPLED PEPTIDES AND METHODS THEREOF” (FOG PHARMACEUTICALS, INC., priority 2021, published 2024).

The target in data set [1] is T1, beta-catenin/TCF4 interaction (Homo sapiens, UniProt P35222).
T1 construct: host or cells: HEK293
T1 sequence (P35222 1-781): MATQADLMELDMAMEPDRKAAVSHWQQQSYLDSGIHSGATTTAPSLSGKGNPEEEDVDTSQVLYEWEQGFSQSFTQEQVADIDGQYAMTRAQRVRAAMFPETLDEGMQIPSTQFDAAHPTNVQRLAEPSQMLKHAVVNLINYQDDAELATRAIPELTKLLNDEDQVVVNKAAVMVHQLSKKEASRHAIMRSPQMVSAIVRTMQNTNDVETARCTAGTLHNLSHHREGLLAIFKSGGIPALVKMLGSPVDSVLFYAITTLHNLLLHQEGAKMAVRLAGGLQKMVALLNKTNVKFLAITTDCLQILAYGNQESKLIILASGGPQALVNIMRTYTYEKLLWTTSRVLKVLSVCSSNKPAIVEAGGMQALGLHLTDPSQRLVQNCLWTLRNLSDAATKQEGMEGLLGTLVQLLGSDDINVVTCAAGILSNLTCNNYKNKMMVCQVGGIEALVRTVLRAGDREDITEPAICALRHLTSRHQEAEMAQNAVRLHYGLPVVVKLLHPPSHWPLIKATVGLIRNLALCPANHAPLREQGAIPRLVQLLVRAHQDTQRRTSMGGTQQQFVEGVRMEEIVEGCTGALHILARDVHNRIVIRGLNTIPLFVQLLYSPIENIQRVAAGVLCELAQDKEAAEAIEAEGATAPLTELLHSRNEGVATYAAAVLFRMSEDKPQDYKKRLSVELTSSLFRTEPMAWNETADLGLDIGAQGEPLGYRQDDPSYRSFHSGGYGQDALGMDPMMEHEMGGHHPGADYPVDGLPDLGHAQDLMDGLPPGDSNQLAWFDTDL
It counts as cell-based. Particulars: read-out: NanoBRET IC50. (In BRET a luciferase serves as donor, and the signal depends on an acceptor being close.)

The subject of data set [2] is AXIN2 transcripts in COLO320DM cells. Kind of data set: qPCR of AXIN2 transcripts in COLO320DM cells. It counts as cell-based, human. Background: Quantitative PCR measures a nucleic acid by following its amplification.
Source text: RT-qPCR. […] Relative gene expression levels were monitored using the Taqman Gene Expression probes for AXIN2 (Hs00610344 m1, ThermoFisher), SP5 (Hs01370227-mH, ThermoFisher), RNF43 (Hs00214886-m1, ThermoFisher), NOTUM (Hs00991061-m1, ThermoFisher), CXCL12 (Hs03676656-mH, ThermoFisher).
The target of data set [3] is T2, full-length B-Catenin (Uniprot ID P35222) (Homo sapiens, UniProt P35222).
T2 construct: 10 nM full-length B-Catenin (Uniprot ID P35222)
T2 sequence (P35222 1-781): T1 sequence (P35222 1-781)
It counts as binding. As to conditions: read-out: Competition Fluorescence Polarization IC50. For orientation: In fluorescence polarisation assays a small probe gives low polarisation when free and higher when bound to something large.

For data set [4], the target named is T3, TCF/LEF luciferase reporter in DLD1 cells (Homo sapiens, UniProt P35222).
T3 sequence (P35222 2-781): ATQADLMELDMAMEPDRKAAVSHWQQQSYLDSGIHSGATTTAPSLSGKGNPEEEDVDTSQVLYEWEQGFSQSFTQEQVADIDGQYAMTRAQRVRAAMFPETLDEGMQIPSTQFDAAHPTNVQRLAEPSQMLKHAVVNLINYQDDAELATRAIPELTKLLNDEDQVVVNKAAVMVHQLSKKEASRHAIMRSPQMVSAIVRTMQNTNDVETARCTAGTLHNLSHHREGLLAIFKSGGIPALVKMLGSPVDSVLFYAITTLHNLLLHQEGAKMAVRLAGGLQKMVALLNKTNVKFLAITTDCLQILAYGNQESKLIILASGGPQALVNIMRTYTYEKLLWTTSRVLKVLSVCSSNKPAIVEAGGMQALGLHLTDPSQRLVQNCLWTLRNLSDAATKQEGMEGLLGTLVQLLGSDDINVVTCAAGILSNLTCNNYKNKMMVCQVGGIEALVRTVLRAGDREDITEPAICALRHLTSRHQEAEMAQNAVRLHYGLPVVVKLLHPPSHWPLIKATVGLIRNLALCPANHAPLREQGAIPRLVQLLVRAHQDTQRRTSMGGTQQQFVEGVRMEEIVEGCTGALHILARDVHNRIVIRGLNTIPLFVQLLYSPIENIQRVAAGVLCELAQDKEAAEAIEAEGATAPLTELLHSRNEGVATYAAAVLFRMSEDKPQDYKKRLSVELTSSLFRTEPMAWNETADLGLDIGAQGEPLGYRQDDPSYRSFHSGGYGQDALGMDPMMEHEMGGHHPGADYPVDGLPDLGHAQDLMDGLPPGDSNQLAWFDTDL
In words: TCF reporter assay in DLD1 cells (4% or 20% FBS). It counts as cell-based. As to conditions: DLD1 reporter cells; read-out: TCF reporter IC50.

The target in data set [5] is T4, beta-catenin/TCF4 interaction (Homo sapiens, UniProt P35222).
T4 construct: endogenous in cells; host or cells: DLD1
T4 sequence (P35222 2-781 limits assumed): T3 sequence (P35222 2-781)
In words: Co-immunoprecipitation of endogenous beta-catenin in DLD1 cells. It counts as cell-based.
Procedure: Co-Immunoprecipitation. […] In some embodiments, for co-IP experiments, DLD1 cells were treated with compounds for a period of time, e.g., 4 hours. […] Briefly, 30 μL of protein A/G magnetic beads were added to each lysate and incubated for 1 hr at room temperature.

In data set [6] the test system is beta-catenin driven transcription in HAP1 WT cells. Kind of data set: qPCR of beta-catenin driven transcription in HAP1 WT cells (CHIR treated). It counts as cell-based. As to conditions: CHIR treated.
Data set [7] can be described thus: Mouse plasma pharmacokinetics (IV, IP). It counts as in vivo. As to conditions: single intraperitoneal (IP) dose at 100 mg/kg.
Procedure: Concentrations of agents in biological samples were measured by LC-MS/MS (Triple Quad 6500+). […] 8 uL of plasma or tissue lysate was used for LC method with mobile phase A (1% formic acid (FA, LS118-4, Fisher Scientific) in H2O) and mobile phase B (0.1% FA in ACN), 0.6 ml/min flow rate in Waters ACQUITY UPLC BEH C18 2.1*50 mm, 1.7 μm column. […] MS was conducted by electrospray ionization and multi reaction monitor scans. PK parameters such as plasma maximum concentration (Cmax), and AUC were analyzed by noncompartmental model 200 of Phoenix WinNonlin 8.3, using the linear/log trapezoidal method.
In some embodiments, concentrations of compounds, e.g., stapled peptides, in biological samples were measured by LC-MS/MS (Triple Quad 6500+). […] 8 uL of plasma or tissue lysate was used for LC method with mobile phase A (1% formic acid (FA, LS118-4, Fisher Scientific) in H2O) mobile phase B (0.1% FA in ACN), 0.6 ml/min flowrate in Waters ACQUITY UPLC BEH C18 2.1*50 mm, 1.7 um column. […] In some embodiments, MS was conducted by electrospray ionization and multi reaction monitor scans. In some embodiments, PK parameters such as plasma maximum concentration (Cmax), and AUC were analyzed by noncompartmental model 200 of Phoenix WinNonlin 8.3, using the linear/log trapezoidal method.
The target of data set [8] is T5, biotinylated B-Catenin residues 134-665 (Uniprot ID P35222) (Homo sapiens, UniProt P35222).
T5 construct: biotinylated B-Catenin residues 134-665 (Uniprot ID P35222)
T5 sequence (P35222 134-665): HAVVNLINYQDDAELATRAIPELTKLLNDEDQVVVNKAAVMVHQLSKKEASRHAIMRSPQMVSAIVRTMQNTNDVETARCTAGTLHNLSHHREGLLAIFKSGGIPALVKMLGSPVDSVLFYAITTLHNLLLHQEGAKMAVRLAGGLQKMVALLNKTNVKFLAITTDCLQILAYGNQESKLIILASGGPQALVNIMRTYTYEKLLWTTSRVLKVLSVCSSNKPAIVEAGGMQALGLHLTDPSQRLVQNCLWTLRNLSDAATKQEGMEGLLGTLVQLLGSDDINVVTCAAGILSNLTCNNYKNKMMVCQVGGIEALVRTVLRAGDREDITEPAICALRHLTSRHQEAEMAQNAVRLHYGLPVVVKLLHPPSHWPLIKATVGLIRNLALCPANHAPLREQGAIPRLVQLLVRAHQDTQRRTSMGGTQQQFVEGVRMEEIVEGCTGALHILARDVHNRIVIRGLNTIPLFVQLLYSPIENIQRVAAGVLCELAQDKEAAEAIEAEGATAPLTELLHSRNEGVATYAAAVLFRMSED
Kind of data set: Surface plasmon resonance (Biacore) binding to beta-catenin. As to conditions: read-out: SPR Kd.
Procedure: In some embodiments, binding to beta-catenin may be measured by surface plasmon resonance (SPR).
Peptides at 10 mM concentration in DMSO are diluted into Biacore™ running buffer (50 mM Tris pH 8.0, 300 mM NaCl, 2% glycerol, 0.5 mM TCEP, 0.5 mM EDTA, 0.005% Tween-20, 0.09% DMSO) to afford an appropriate dilution range. […] Results were analyzed using the Biacore™ Insight Evaluation Software, fitting to a 1:1 binding model.
SPR. In some embodiments, SPR may be utilized for characterizing or assessing interactions, bindings, etc. The following protocol is described as an example. In some embodiments, SPR experiments were performed on a Biacore™ 8K (Cytiva, Marlborough, MA) instrument at 25° C. Compounds were diluted into running buffer (50 mM Tris pH 8.0, 300 mM NaCl, 2% glycerol, 0.5 mM TCEP, 0.5 mM EDTA, 0.005% Tween-20, 1% DMSO). […] Results were analyzed using the Biacore™ Insight Evaluation software, with double referencing and fitted to a 1:1 binding affinity model.

On to “Ac-PL3-Glu-Npg-B5-Glu-3COOHF-Aib-Ala-Phe-Lys*3-PyrS2-3Thi-BztA-GlnR*3-Ala-NH2 [I-470]”, for which the IC50 – broadly, the concentration that inhibits the measured activity by half – in data set [1] was greater than 20 µM; in data set [2] (Reduction of AXIN2 transcripts in COLO320DM cells) it was greater than 20 µM; in data set [3], 7.5 µM; in data set [4] it was greater than 20 µM. The “effect on AXIN2 expression level” value in data set [2] (COLO320DM cells) is “no or very little or non-significant effect”. Besides, the “beta-catenin/TCF4 interaction by co-IP and Western blotting” value in data set [5] is “not”. Moreover, the “expression of AXIN2 and SP5 by qPCR (transcription)” value in data set [6] is recorded as “No reduction”. Moreover, the “plasma AUC” value in data set [7] is “comparable”. For the same substance, the dissociation constant (Kd) (commonly the concentration at which binding is half-saturated) in data set [8] is greater than 5 µM.
